Results: paper PMC6940745 (International Journal of Molecular Sciences, 2019)
Where a SMILES comes first, the peptide text is derived from it. [ ]: non-standard residue; d: D form. The star is where a group is joined. Bz = O=C(c1ccccc1)*; NPr2 = CCCN(CCC)*

Tests used:
[1] = target: T1, MC2R (Homo sapiens, UniProt Q01718); test: MC2R activation, cAMP HTRF assay in CHO-K1 cells; assay type: cell-based
T1 construct: host or cells: CHO-K1
Protocol: (§1) MCR-activation assays were performed by means of a cAMP HTRF (homogeneous time resolved fluorescence) assay for Gs-coupled receptors (cAMP Gs dynamic kit, Cisbio bioassays, 62AM4PEC). CHO-K1 cells expressing human recombinant MC1 receptor (EuroscreenFast, Gosselies, Belgium) (or MC2R, MC3R, MC4R, MC5R) were grown prior to the test in media without antibiotic. They were detached by gentle flushing with PBS-EDTA (5 mM EDTA), recovered by centrifugation, and resuspended in assay buffer (5 mM KCl, 1.25 mM MgSO4, 124 mM NaCl, 25 mM HEPES, 13.3 mM Glucose, 1.25 mM KH2PO4, 1.45 mM CaCl2, 0.5 g/L BSA, supplemented with 1 mM IBMX). Dose response curves were performed in parallel with the reference compounds. For agonist test (96-well), 12 µL of cells were mixed with 12 µL of the test compound diluted at increasing concentrations in assay buffer, and then incubated for 30 min at room temperature. After addition of the lysis buffer and 1 h incubation, fluorescence signal was measured, according to the manufacturer’s specifications, with the homogeneous time resolved fluorescence (HTRF) kit.

[2] = target: T2, MC5R (Homo sapiens, UniProt P33032); test: MC5R activation, cAMP HTRF assay in CHO-K1 cells; assay type: cell-based
T2 construct: host or cells: CHO-K1
T2 sequence (P33032 whole entry): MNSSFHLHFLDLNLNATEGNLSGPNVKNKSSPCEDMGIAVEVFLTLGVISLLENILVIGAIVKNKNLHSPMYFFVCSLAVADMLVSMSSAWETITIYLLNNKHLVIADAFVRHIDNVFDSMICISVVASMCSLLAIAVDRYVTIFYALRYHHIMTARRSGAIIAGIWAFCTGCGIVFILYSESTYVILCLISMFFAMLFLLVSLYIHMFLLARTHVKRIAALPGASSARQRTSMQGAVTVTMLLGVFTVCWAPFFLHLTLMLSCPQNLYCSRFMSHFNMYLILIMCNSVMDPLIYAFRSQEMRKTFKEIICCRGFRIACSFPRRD
Protocol: as §1

[3] = system: TYRP-1; test: TYRP-1 protein expression in human skin ex vivo (immunohistochemistry); assay type: cell-based; settings: topical 30, 100 and 200 µM, six days; p < 0.05
Protocol: (§2) Following declaration of Helsinki principles (DoH-Oct2013, World Medical Association, Ferney-Voltaire, France), human skin samples were obtained from elective plastic surgery after informed consent was obtained. For the two experiments shown in Figure 2, Figure 3 and Figure 4, we had one person with an individual topology angle (ITA°) of 18, and one person with an ITA° of 39 [69]. The skin samples were cut in pieces of 8 × 3 mm and cultured up to day 6. Skin samples were cultured in an air–liquid interface in a perforated ring of stainless steel in contact with culture medium (modified Williams’ E medium). The culture medium was renewed every three days (i.e., day 0–3). Compounds were added daily in DMSO at 4 µL volume. At day 6, the skin samples were fixed in formalin, embedded in paraplast, and cut at the microtome for histochemical staining and consequent image analysis. Six skin biopsies were used for each single treatment.
(§3) Twelve skin sections from the ex vivo melanogenesis experiment above were immunoassayed with the selected antibodies (TYR, Thermo Scientific #MS-800-P0 (Thermo Scientific, Waltham, MA, USA); TYRP-1, Covance #SIG-38150 (Covance Inc., Princeton, NJ, USA), MITF, Abcam #ab80651 (Abcam plc, Cambridge, UK). The number of positive cells within the epidermis was counted and the value was normalized upon the length of the basal lamina, thus obtaining a score. […]

[4] = system: MC1R; test: MC1R expression in ex vivo epidermis in the presence of UVA; assay type: cell-based, human; settings: ex vivo epidermis in the presence of UVA (Figure S1)
[5] = system: TYR; test: TYR protein expression in human skin ex vivo (immunohistochemistry); assay type: cell-based; settings: topical 30, 100 and 200 µM, six days; p = 0.06
Protocol: as §2, §3

[6] = target: human MCH2R (Homo sapiens, UniProt Q969V1); test: MCH2R activation, Aequorin assay; assay type: cell-based; settings: eight concentrations, 0.01 to 100,000 nM
Chain of human MCH2R (Q969V1 whole entry): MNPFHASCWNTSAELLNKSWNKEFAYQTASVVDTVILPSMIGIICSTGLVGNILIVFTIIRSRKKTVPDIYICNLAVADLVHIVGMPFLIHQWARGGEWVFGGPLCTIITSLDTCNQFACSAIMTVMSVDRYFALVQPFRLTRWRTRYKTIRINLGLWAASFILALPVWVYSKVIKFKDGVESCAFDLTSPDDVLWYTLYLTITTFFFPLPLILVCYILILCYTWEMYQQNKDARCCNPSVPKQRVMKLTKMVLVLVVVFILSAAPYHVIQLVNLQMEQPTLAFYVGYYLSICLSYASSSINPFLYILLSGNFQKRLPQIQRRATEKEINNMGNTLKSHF
Protocol: (§4) Melanin-concentrating hormone receptor (MCHR), endothelin-1 receptor (ETBR), and serotonin-receptor (5-HT2AR) assays were performed by means of Aequorin assays. Recombinant cells co-expressing human MCH1R, MCH2R, ETBR, or 5-HT2AR and mitochondrial apoaequorin (MCH1R, MCH2R and 5-HT2AR cells also co-express recombinant Gα16 protein) (EuroscreenFast, Gosselies, Belgium), grown 18 h prior to the test in media without antibiotics, were detached by gentle flushing with PBS-EDTA (5 mM EDTA), recovered by centrifugation, and resuspended in assay buffer (DMEM/HAM’s F12 with HEPES + 0.1% BSA protease free). Cells were incubated under agitation at room temperature for at least 4 h with Coelenterazine h (Promega, X300X, 0.5 µM final concentration). Dose response curves with the reference compounds were performed before testing the compounds. For agonist testing, 50 µL of cell suspension was injected on 50 µL of test compound or reference agonist diluted in assay buffer and plated in a 96-well plate. The resulting emission of light was recorded using the Hamamatsu Functional Drug Screening System 6000 (FDSS 6000). […] Agonist activity of test compound was expressed as a percentage of the activity of the reference agonist at its EC100 concentration.

[7] = target: T3, MC3R (Homo sapiens, UniProt P41968); test: MC3R activation, cAMP HTRF assay in CHO-K1 cells; assay type: cell-based; settings: eight concentrations, 0.01 to 100,000 nM
T3 construct: host or cells: CHO-K1
T3 sequence (P41968 whole entry): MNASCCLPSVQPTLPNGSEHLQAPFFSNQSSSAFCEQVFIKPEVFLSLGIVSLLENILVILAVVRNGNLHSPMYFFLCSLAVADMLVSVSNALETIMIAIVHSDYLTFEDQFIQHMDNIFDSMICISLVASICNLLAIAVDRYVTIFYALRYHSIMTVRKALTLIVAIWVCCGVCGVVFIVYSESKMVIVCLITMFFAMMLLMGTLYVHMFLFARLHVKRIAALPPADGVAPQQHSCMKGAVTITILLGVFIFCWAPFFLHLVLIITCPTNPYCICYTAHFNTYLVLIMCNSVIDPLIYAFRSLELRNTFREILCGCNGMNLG
Protocol: as §1

[8] = target: human 5-HT2AR (Homo sapiens, UniProt P28223); test: 5-HT2AR activation, Aequorin assay; assay type: cell-based; settings: eight concentrations, 0.01 to 100,000 nM
Chain of human 5-HT2AR (P28223 whole entry): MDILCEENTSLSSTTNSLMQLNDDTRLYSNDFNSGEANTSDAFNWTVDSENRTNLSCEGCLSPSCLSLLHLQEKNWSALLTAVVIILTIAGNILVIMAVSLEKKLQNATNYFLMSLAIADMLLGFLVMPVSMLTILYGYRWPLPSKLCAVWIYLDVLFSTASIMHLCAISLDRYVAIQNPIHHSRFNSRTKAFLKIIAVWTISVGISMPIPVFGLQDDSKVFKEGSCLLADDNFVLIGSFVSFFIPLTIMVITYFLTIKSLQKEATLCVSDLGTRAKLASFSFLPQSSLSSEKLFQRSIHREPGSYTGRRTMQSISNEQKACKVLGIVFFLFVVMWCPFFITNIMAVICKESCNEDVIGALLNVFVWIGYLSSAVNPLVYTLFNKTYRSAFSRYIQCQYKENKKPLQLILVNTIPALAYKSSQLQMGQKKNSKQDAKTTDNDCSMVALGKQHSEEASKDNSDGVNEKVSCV
Protocol: as §4

[9] = eight concentrations, 0.01 to 100,000 nM

T1 sequence (Q01718 whole entry): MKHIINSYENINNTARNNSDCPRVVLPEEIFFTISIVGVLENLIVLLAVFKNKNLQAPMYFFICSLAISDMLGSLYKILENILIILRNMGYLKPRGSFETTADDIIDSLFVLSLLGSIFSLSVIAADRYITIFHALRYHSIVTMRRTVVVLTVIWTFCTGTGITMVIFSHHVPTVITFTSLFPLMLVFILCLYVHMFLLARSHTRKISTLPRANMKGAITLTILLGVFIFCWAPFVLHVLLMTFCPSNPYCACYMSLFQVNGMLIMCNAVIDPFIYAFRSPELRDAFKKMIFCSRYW
T1 sequence (Q8TCY5 whole entry partner): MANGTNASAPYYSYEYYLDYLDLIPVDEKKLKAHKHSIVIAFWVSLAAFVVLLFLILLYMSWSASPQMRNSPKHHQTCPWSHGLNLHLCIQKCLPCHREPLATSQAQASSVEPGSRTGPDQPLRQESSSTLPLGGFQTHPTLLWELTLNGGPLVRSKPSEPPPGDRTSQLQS

CCCN(CCC)C(=O)[C@@H](Cc1c[nH]c2ccccc12)NC(=O)[C@H](CCCNC(=N)N)NC(=O)[C@@H](Cc1ccccc1)NC(=O)[C@H](Cc1c[nH]cn1)NC(=O)CNC(=O)c1ccccc1 [Peptide 4] (Bz-GH[dF]R[dW]-NPr2)
EC50 [1, 9]: > 100 µM
Activation of MC2R ([1]; up to 100 µM): no significant activation
EC50 [2, 9]: > 100 µM
Activation of MC5R ([2]; up to 100 µM): no significant activation
Maximal induction of TYRP-1 protein expression vs vehicle [3]: 72%
Influence on expression of MC1R [4]: no influence
Maximal induction of TYR protein expression vs vehicle [5]: 44%
EC50 [6]: > 100 µM
EC50 [7]: 0.877 µM
EC50 [8]: > 100 µM
